From article PMC7051184, “C9orf72 arginine-rich dipeptide repeat proteins disrupt karyopherin-mediated nuclear import” (eLife, 2020) come the findings set out here.

Where a SMILES comes first, the peptide text is derived from it.

One assay concerns importin β. Briefly: Bead halo assay, biotinylated importin β on neutravidin beads. The note with it: AF488-labeled; 1 mg/ml neuronal lysate added. It is filed as binding, human. Here is the method: To prepare biotinylated WT importin β-Avitag (pKW1982, pK1099), BL21DE3 cells (New England Biolabs, Ipswich, MA) were co-transfected with the respective plasmids together with pAC-biotin ligase (Avidity), followed by plating and growth in LB media containing ampicillin and chloramphenicol. After the 37°C cultures reached OD600nm + 0.4–0.6, the cultures were cooled to room temperature, supplemented with 100 µM D-biotin, and the expression was induced with 0.3 mM IPTG at room temperature for 8–11 hr (pKW762). Proteins were purified on Ni-NTA resin as described for the non-biotinylated importin β fragments.
(§1) The bead halo assay was carried out as described with minor modifications ([Patel and Rexach, 2008]), using […] polystyrene beads coated with neutravidin (for biotinylated proteins) or glutathione (for GST-fusion proteins) (Spherotech, Lake Forest, IL). Beads were coated overnight at 4°C at saturating concentrations per manufacturers’ instructions and rinsed 2x in binding buffer (20 mM HEPES [pH 7.4], 150 mM KOAc, 2 mM Mg(OAc)2, 1 mM DTT, 0.1% Tween-20). Immediately prior to the assay, fluorescent bait proteins and beads were combined with 4x assay buffer (40 mM EDTA, 40 mg/ml BSA, 500 mM NaCl, and 0.2% Tween) to a total of 40 µL per well, in optical glass-bottom 96-well plates (Cellvis, Mountain View, CA). […]

For a further assay, the system named is BSA. The assay can be described thus: Bead halo assay, biotinylated BSA-coated beads (non-specific control). The assay is classed as binding. Conditions: AF488-labeled. Here is the method: Purified WT importin β (pKW485) diluted to 10 µM in XB was combined with 10-molar excess of Alexa Fluor 647 NHS ester (ThermoFisher), using freshly-prepared 10 mM dye in anhydrous DMSO. After incubation on ice for 2 hr, the sample was dialyzed in PBS and concentrated on 30kD MWCO filter (Millipore Sigma) before storage. A similar protocol was used to label BSA with 10-molar excess Sulfo-NHS-LC-biotin (ThermoFisher), followed by dialysis in PBS.
as §1, with “CA). Reactions were allowed to equilibrate at room temperature for a minimum of 30 min prior to imaging at 100x on an LSM800 confocal microscope (Zeiss, Oberkochen, Germany).” for “CA).”

The next assay deals with Nup100(1-307). It is filed as binding, S. cerevisiae. The note with it: AF488-labeled. Here is the method:
(§2) The expression of GST- Nsp1(497-609) in BL21(DE3) cells grown in LB media was induced at OD600nm = 0.4–0.6, followed by incubation at 37°C for 3–5 hr. The GST-tagged S. cerevisiae pGEX-Nup100(1-307), Nup100(1-610), Nup116(348-458) and Nup116(348-458)F > A were expressed in T7 Shuffle cells (NEB) that were grown in Dynamite media ([Taylor et al., 2017]) until OD600nm = 0.9 before induction with IPTG at 37°C for 3 hr. All the GST-tagged Nup fragments were purified using glutathione-sepharose affinity chromatography, as described for the GST-GFP-NLS above, and dialyzed into PBS before storage.
(§3) The bead halo assay was carried out as described with minor modifications ([Patel and Rexach, 2008]), using […] polystyrene beads coated with neutravidin (for biotinylated proteins) or glutathione (for GST-fusion proteins) (Spherotech, Lake Forest, IL). Beads were coated overnight at 4°C at saturating concentrations per manufacturers’ instructions and rinsed 2x in binding buffer (20 mM HEPES [pH 7.4], 150 mM KOAc, 2 mM Mg(OAc)2, 1 mM DTT, 0.1% Tween-20). Immediately prior to the assay, fluorescent bait proteins and beads were combined with 4x assay buffer (40 mM EDTA, 40 mg/ml BSA, 500 mM NaCl, and 0.2% Tween) to a total of 40 µL per well, in optical glass-bottom 96-well plates (Cellvis, Mountain View, CA). Reactions were allowed to equilibrate at room temperature for a minimum of 30 min prior to imaging at 100x on an LSM800 confocal microscope (Zeiss, Oberkochen, Germany). Intensity profiles comparing the maximum rim intensity to the background were plotted in ImageJ (NIH) by an investigator blinded to experimental conditions.

The test system of a further assay is Nup100(1-610). It is filed as binding, S. cerevisiae. Conditions: AF488-labeled. Here is the method: as §2, §3
Another assay deals with Nsp1(497-609). Briefly: Bead halo assay, GST-Nsp1(497-609) FxFG domain. The assay is classed as binding, S. cerevisiae. Conditions: AF488-labeled. Here is the method:
as §2, §1

Another assay has as its system Nup133. The assay can be described thus: DPR aggregation assay and western blot, Nup133. It is filed as biochemical, human. Conditions: 100 µM 10mer in 2.5 mg/ml HEK lysate, normalized to untreated HEK. Here is the method:
(§4) Supernatant and pellet fractions (for all 5 DPRs, and control/buffer only) were prepared as in the nuclear transport assays, by adding 100 µM 10mers to 2.5 mg/ml HEK lysate in 100 µL TRB. Supernatants were boiled in Laemmli (BioRad) for 5 min. Pellets were boiled for 15 min followed by sonication in order to fully disperse aggregates for SDS-PAGE. Equal volumes of supernatant and pellet fractions were run on 4–12% Bolt Bis-Tris Plus gels (ThermoFisher), transferred to nitrocellulose membrane using an iBlot2 dry blotting system (ThermoFisher). Protein loading was analyzed by BLOT-Faststain (G-biosciences, St. Louis, MO), according to the manufacterers’ instructions. For immunodetection, membranes were blocked with 5% non-fat milk in TBST and probed by sequential incubation with the primary antibodies as detailed in the table below. Detection was by HRP-conjugated secondary antibodies/chemiluminescence using an ImageQuant LAS 4000 system (GE, Chicago, IL). To permit sequential probing of membranes without stripping, signals were quenched by incubation with prewarmed 30% H20_2 for 20 min ([Sennepin et al., 2009]). Band intensities were measured by ImageQuant software. For pellet vs. supernatant fractions, all were expressed as percent untreated control. For blots in Figure 1E, samples were run on 4–20% SDS PAGE minigels (ThermoFisher) and blotted to PVDF membranes (Immun-Blot PVDF, Bio-Rad) using the Bio-Rad TransBlot Turbo apparatus, and probed as above. The chemiluminescence signal was captured with a Bio-Rad ChemiDoc XRS+ digital imaging system.

The next assay deals with Nup98. The assay can be described thus: DPR aggregation assay and western blot, Nup98. The assay is classed as biochemical, human. Conditions: 100 µM 10mer in 2.5 mg/ml HEK lysate, normalized to untreated HEK. Here is the method:
as §4
In general terms: Immunoblotting shows a protein as a band on a membrane.

Another assay concerns Nup62. Briefly: DPR aggregation assay and western blot, Nup62. The assay is classed as biochemical, human. Conditions: 100 µM 10mer in 2.5 mg/ml HEK lysate, normalized to untreated HEK. Here is the method: as §4
Another assay relates to Nup54. The assay can be described thus: DPR aggregation assay and western blot, Nup54. The assay is classed as biochemical, human. The note with it: 100 µM 10mer in 2.5 mg/ml HEK lysate; Blot 1; normalized to untreated HEK. As for the experimental part:
as §4, with “For blots in Figure 1E, samples were run on 4–20% SDS PAGE minigels (ThermoFisher) and blotted to PVDF membranes (Immun-Blot PVDF, Bio-Rad) using the Bio-Rad TransBlot Turbo apparatus, and probed as above. The chemiluminescence signal was captured with a Bio-Rad ChemiDoc XRS+ digital imaging system.” left out

A further assay has as its system FUS. Briefly: DPR aggregation assay and western blot, FUS. The assay is classed as biochemical, human. Conditions: normalized to untreated HEK cells on the same membrane. Here is the method: as §4
The test system of another assay is hnRNPA1. Briefly: DPR aggregation assay and western blot, hnRNPA1. It is filed as biochemical, human. The note with it: normalized to untreated HEK cells on the same membrane. Here is the method: as §4
The subject of a further assay is hnRNPA2/B1. The assay can be described thus: DPR aggregation assay and western blot, hnRNPA2/B1. Conditions: normalized to untreated HEK cells on the same membrane. The assay is classed as biochemical, human. As for the experimental part:
as §4

In assay [1] the target is importin β-mediated nuclear import of Rango (Homo sapiens, UniProt Q14974). The assay can be described thus: Permeabilized cell nuclear import assay, Rango, HeLa. It is filed as cell-based.
Chain of importin β-mediated nuclear import of Rango (Q14974 whole entry): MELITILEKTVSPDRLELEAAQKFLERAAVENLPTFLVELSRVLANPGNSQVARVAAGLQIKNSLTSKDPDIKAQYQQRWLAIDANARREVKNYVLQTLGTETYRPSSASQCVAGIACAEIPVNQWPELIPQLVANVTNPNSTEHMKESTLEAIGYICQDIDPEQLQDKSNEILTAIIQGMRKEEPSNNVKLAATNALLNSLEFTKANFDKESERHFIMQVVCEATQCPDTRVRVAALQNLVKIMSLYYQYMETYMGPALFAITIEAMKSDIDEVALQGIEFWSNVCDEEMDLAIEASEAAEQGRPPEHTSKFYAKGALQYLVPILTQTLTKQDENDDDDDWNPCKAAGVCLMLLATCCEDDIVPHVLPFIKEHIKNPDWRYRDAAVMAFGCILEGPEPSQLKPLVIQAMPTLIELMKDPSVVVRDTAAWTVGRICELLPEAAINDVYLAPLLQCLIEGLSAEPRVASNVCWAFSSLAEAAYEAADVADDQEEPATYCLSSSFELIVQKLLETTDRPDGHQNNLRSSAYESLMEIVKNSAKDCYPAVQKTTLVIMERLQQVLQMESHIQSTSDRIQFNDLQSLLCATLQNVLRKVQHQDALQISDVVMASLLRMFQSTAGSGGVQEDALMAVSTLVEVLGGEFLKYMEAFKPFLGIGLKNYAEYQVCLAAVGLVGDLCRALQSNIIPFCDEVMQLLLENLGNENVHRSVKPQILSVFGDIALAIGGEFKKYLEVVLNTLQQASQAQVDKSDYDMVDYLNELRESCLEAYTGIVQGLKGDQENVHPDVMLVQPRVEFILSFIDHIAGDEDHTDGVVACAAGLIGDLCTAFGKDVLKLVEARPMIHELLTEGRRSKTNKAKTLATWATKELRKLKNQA

With `N=C(N)NCCC[C@H](NC(=O)[C@@H]1CCCN1C(=O)[C@H](CCCNC(=N)N)NC(=O)[C@@H]1CCCN1C(=O)[C@H](CCCNC(=N)N)NC(=O)[C@@H]1CCCN1C(=O)[C@H](CCCNC(=N)N)NC(=O)[C@@H]1CCCN1C(=O)[C@H](CCCNC(=N)N)NC(=O)[C@@H]1CCCN1C(=O)[C@H](CCCNC(=N)N)NC(=O)[C@@H]1CCCN1C(=O)[C@H](CCCNC(=N)N)NC(=O)[C@@H]1CCCN1C(=O)[C@H](CCCNC(=N)N)NC(=O)[C@@H]1CCCN1C(=O)[C@H](CCCNC(=N)N)NC(=O)[C@@H]1CCCN1C(=O)[C@H](CCCNC(=N)N)NC(=O)[C@@H]1CCCN1)C(=O)O` [PR10] (H-PRPRPRPRPRPRPRPRPRPR-OH; N-terminus and C-terminus assumed), the “Binding to importin β-coated beads” value with importin β is “the intensity of the importin β halo persisted”. Besides, in the assay on BSA (200 nM, binding buffer), the “Binding to BSA-coated beads” value was “modest non-specific binding”. The “Nonspecific binding to control beads” value in the assay on BSA (1 mg/ml neuronal lysate added) is “nonspecific binding decreased”. Also, the “Binding to Nup100 GLFG-domain (halo intensity)” value in the assay on Nup100(1-307) (binding buffer) and with Nup100(1-610) (binding buffer) was “modest selective binding” in each case. The “FG-binding with added unlabeled importin β” value with Nup100(1-307) (+ unlabeled importin β), with Nup100(1-610) (+ unlabeled importin β) and with Nsp1(497-609) was “FG-binding could be augmented” throughout. Moreover, the figures for the “Nup133 band density, Pellet” value in the assay on Nup133 (Blot 1) and with Nup133 (Blot 2) were 156.5 % control and 194.3 % control, respectively. Also, the “Nup133 band density, Supernatant” value was 45.6 % control in the assay with Nup133 (Blot 1) and 40.2 % control with Nup133 (Blot 2). The “Nup98 band density, Pellet” value in the assay on Nup98 (Blot 1) was determined as 109.9 % control; in the assay on Nup98 (Blot 2), 150.1 % control. In addition, the “Nup98 band density, Supernatant” value with Nup98 (Blot 1) is on record as 57.2 % control; in the assay with Nup98 (Blot 2), 67.5 % control. Moreover, the “Nup62 band density, Pellet” value in the assay with Nup62 (Blot 1) stood at 204.0 % control; with Nup62 (Blot 2) it was 227.1 % control. The “Nup62 band density, Supernatant” value was 154.3 % control in the assay with Nup62 (Blot 1) and 111.0 % control in the assay on Nup62 (Blot 2). Further, the “Nup54 band density, Pellet” value with Nup54 was 143.4 % control. In the assay on Nup54, the “Nup54 band density, Supernatant” value stood at 96.8 % control. The “FUS band density, % control” value in the assay with FUS (Pellet, Blot 1) turned out to be 65.8 % control; in the assay on FUS (Pellet, Blot 2) it was 35.2 % control; with FUS (Supernatant, Blot 1), 99.5 % control; in the assay with FUS (Supernatant, Blot 2) it was 123.2 % control. Further, the “hnRNPA1 band density, % control” value in the assay on hnRNPA1 (Pellet, Blot 1) is 165.2 % control; in the assay with hnRNPA1 (Pellet, Blot 2) it was 367.1 % control; in the assay with hnRNPA1 (Supernatant, Blot 1), 61.7 % control; in the assay on hnRNPA1 (Supernatant, Blot 2), 58.6 % control. The “hnRNPA2/B1 band density, % control” value in the assay with hnRNPA2/B1 (Pellet, Blot 1) is listed as 426.4 % control; in the assay with hnRNPA2/B1 (Pellet, Blot 2), 309.1 % control; with hnRNPA2/B1 (Supernatant, Blot 1), 53.5 % control; with hnRNPA2/B1 (Supernatant, Blot 2) it was 56.7 % control.
With “GA10: Synthetic 10-mer GA dipeptide repeat with C-terminal lysine and cysteine (GAGAGAGAGAGAGAGAGAGAKC)”, the “NCT inhibition in permeabilized HeLa” value in [1] is “did not see NCT inhibition”.
